Source: ChEMBL document CHEMBL1129393, “Synthesis of novel trans-4-(substituted-benzamido)-3,4-dihydro-2H-benzo[b]-pyran-3-ol derivatives as potential anticonvulsant agents with a distinctive binding profile” (J Med Chem, 1996)

Assays:
[1] = biological target: SB-204269 binding site; assay: Inhibition of [3H]-SB 204269 binding to rat forebrain membranes.; format: cell membranes, Membrane
[2] = tested on: Mus musculus; assay: Percentage increase in seizure threshold at dose of 10 mg/kg in mouse maximal electroshock seizure threshold (MEST) model after po administration; format: functional
[3] = tested on: Mus musculus; assay: Percentage increase in seizure threshold at dose of 3 mg/kg in mouse maximal electroshock seizure threshold (MEST) model after po administration

Row | Compound | Log Ki [1] | Increase [2] [%] | Increase [3] [%]
1 | COC(=O)c1ccc2c(c1)C(NC(=O)c1ccc(F)cc1)C(O)C(C)(C)O2 (stereo not drawn) | -6.69 | 59 | 
2 | CC(=O)c1ccc2c(c1)[C@H](NC(=O)c1ccccc1)[C@@H](O)C(C)(C)O2 | -7.3 | 110 | 65
3 | CC(=O)c1ccc2c(c1)OC(C)(C)C(O)C2NC(=O)c1ccc(F)cc1 (stereo not drawn) | -5.51 |  | 
4 | CC1(C)Oc2ccc(C#N)cc2[C@H](NC(=O)c2ccc(F)cc2)[C@H]1O | -6 | 41 | 15
5 | CC(=O)c1ccc2c(c1)[C@H](NC(=O)c1cccc(Cl)c1)[C@@H](O)C(C)(C)O2 | -8.04 | 90 | 78
6 | CC1(C)Oc2ccc(C(=O)c3ccccc3)cc2C(NC(=O)c2ccc(F)cc2)C1O (stereo not drawn) | -6.12 |  | 
7 | CC1(C)Oc2ccc(C(N)=O)cc2C(NC(=O)c2ccc(F)cc2)C1O (stereo not drawn) | -6.06 | 6 | 
8 | CC(=O)c1cccc2c1C(NC(=O)c1ccc(F)cc1)C(O)C(C)(C)O2 (stereo not drawn) | -5.09 |  | 
9 | CC(=O)c1ccc2c(c1)[C@H](NC(=O)c1ccccc1Cl)[C@@H](O)C(C)(C)O2 | -7.65 |  | 94
10 | CC1(C)Oc2ccc(F)cc2C(NC(=O)c2ccc(F)cc2)C1O (stereo not drawn) | -5.38 | 10 | 
11 | Cc1ccc2c(c1)C(NC(=O)c1ccc(F)cc1)C(O)C(C)(C)O2 (stereo not drawn) | -5.3 | 5 | 

Now from value to compound, other results behind:

Row | Log Ki [1] | Compound | Increase [2] [%] | Increase [3] [%]
12 | -5.84 | CC1(C)Oc2ccc(S(=O)(=O)c3ccccc3)cc2C(NC(=O)c2ccc(F)cc2)C1O (stereo not drawn) | -7 | 
13 | -6.8 | CCC(=O)c1ccc2c(c1)C(NC(=O)c1ccc(F)cc1)C(O)C(C)(C)O2 (stereo not drawn) | 35 | 
14 | -7.32 | CC(=O)c1ccc2c(c1)[C@H](NC(=O)c1ccc(F)cc1)[C@@H](O)C(C)(C)O2 [CARABERSAT] | 102 | 89
15 | -6.35 | CC1(C)Oc2ccc(C(F)(F)C(F)(F)F)cc2[C@H](NC(=O)c2ccc(F)cc2)[C@H]1O | -8 | 
16 | -8.28 | CC(=O)c1ccc2c(c1)[C@H](NC(=O)c1cccc(I)c1)[C@@H](O)C(C)(C)O2 | 51 | 
17 | -7.16 | CC(=O)c1ccc2c(c1)C(NC(=O)c1ccc(Cl)cc1)C(O)C(C)(C)O2 (stereo not drawn) | 55 | 
18 | -5 | CC(=O)c1cccc2c1OC(C)(C)C(O)C2NC(=O)c1ccc(F)cc1 (stereo not drawn) | 5 | 
19 | < -4.5 | CC(=O)c1ccc2c(c1)[C@@H](NC(=O)c1ccc(F)cc1)[C@H](O)C(C)(C)O2 | 8 | 
20 | -6.2 | CC1(C)Oc2ccc([N+](=O)[O-])cc2C(NC(=O)c2ccc(F)cc2)C1O (stereo not drawn) | 45 | 2
21 | -5.9 | CC(=O)c1ccc2c(c1)C(NC(=O)C1CCCCC1)C(O)C(C)(C)O2 (stereo not drawn) |  | 
